Results: article PMC4491869, “Antimicrobial activity of synthetic cationic peptides and lipopeptides derived from human lactoferricin against Pseudomonas aeruginosa planktonic cultures and biofilms” (BMC Microbiology, 2015)
≈ marks a conversion by molar mass, not a printed value. Where a SMILES comes first, the peptide text is derived from it. The star is where a group is joined. Butanoyl(2,2-Me2) = CCC(C)(C)C(=O)*; Octanoyl(6-Me) = CCC(C)CCCCC(=O)*

Experiments:
[1] = tested on: Pseudomonas aeruginosa PAO1 planktonic cells; type: cell-based; conditions: PAO1, 24 h
Protocol: Minimal inhibitory concentrations (MIC) of the peptides were determined in Mueller Hinton (MH) medium (Difco Laboratories, Detroit, MI, USA) by the broth microdilution assay following recommendations of the Clinical and Laboratory Standards Institute (CLSI, formerly NCCLS) with some modifications. Minimum bactericidal concentration (MBC) was defined as the concentration that caused a 3-log viability decrease in the initial inoculum and was calculated by colony counts on TSA plates incubated for 24 h at 37 °C.

[2] = tested on: P. aeruginosa PAO1; assay: Time-kill curves (T3log); type: cell-based, Pseudomonas aeruginosa; conditions: MH, 37 °C with shaking, sampling 15 min to 6 h
Protocol: Time-kill studies were determined with glass tubes containing 10 ml of MH and different concentrations of the peptides (1, 2 and 4 times their MIC). Overnight cultures of P. aeruginosa PAO1 in TSB were adjusted at 5 × 10^7 CFU/ml turbidimetrically. This […] suspension was diluted in the MH tubes (1:50) for the time-kill assay. Tubes were incubated at 37 °C with shaking and samples were taken at the following time points after the beginning of incubation: 15 min, 30 min, 45 min, 1 h, 2 h, 4 h and 6 h. Each sample was serially diluted and plated. The lower limit of detection was 30 CFU/ml (1.5 × log10 CFU/ml).
To quantify the killing efficiency of the treatments, the parameter T3log (defined as the time required for the treatment to decrease 3 logs the initial inoculum) was used.

[3] = tested on: S. aureus; assay: MIC against S. aureus; type: cell-based; conditions: data not shown
[4] = tested on: P. aeruginosa PAO1 biofilms; type: cell-based, Pseudomonas aeruginosa; conditions: 10XMIC, 24 h at 37 °C, biofilms grown in microplates (static conditions)
Protocol: In the microplate based assay, biofilms were grown with no fluid shear and the anti-biofilm activity of peptides was assessed as previously described with some modifications. Briefly, overnight cultures of P. aeruginosa PAO1 in TSB were adjusted at 5 × 10^7 CFU/ml turbidimetrically. This suspension was diluted in TSB (1:100) and 100 μl aliquots were added to the wells of a 96-well plate. After 24 h incubation at 37 °C, planktonic bacteria were removed by gently inverting the plate and then the biofilm-containing wells were washed with saline (0.85 % NaCl). The antimicrobial compound was serially diluted in Mueller Hinton (MH) at final concentrations higher than its planktonic MIC and 200 μl of each dilution was added to the wells. After 24 h incubation at 37 °C, biofilms were stained with either MTT (Sigma, St. Louis, MO, USA) or crystal violet (CV). As control, duplicate biofilms were incubated with MH containing no antimicrobial.
To quantify the disinfection (or bactericidal) activity of the antimicrobials on the biofilms, the MTT assay was used and performed as follows. After the treatment, the biofilms were rinsed with saline and 200 μl of a 0.5 mg/ml dilution of MTT in MH, was added to the wells. Incubation of biofilm with MTT was carried out during 4 h at 37 °C with no shaking. As a measure of cell viability, the conversion of MTT to a […] was determined by solubilizing the salt in 100 μl/well of DMSO and reading the absorbance of the resulting solution at 540 nm.
Both the disinfection and removal activity of antimicrobials were expressed as “activity percentage”, a parameter that was calculated using the following formula: ActivityPercentage=C−B−T−B/C−B×100
Where C is the absorbance value of the control well with non-treated biofilm, T corresponds to the absorbance value of the well with treated biofilm and B is the blank well (i.e. with no biofilm).

[5] = tested on: P. aeruginosa PAO1 pMF230 biofilm; assay: CDC-reactor biofilm assay, confocal laser scanning microscopy (GFP/PI); type: cell-based, Pseudomonas aeruginosa; conditions: 10XMIC, 60 min, CLSM, determined by volume
Protocol: (§1) Briefly, 1 ml of an overnight culture of P. aeruginosa PAO1 pMF230 was inoculated into 350 ml of TSB and this suspension was used to fill the reactor chamber. After 24 h of growth in batch culture at 37 °C with magnetic agitation, a continuous flow of TSB (3 g/l) was applied to the reactor chamber at a rate of 11 ml/min. Under these conditions, a dense biofilm develops on the surface of small disks called coupons that are constantly bathed in fresh culture medium. After 24 h incubation, the coupons were removed from the chamber and planktonic cells were eliminated by rinsing the coupons with saline. […]
(§2) For the microscopic assessment of anti-biofilm activity, biofilms grown and treated on coupons as detailed above were soaked in a 120 μM solution of propidium iodide (PI, live/dead® Baclight™ bacterial viability kit, Invitrogen, Carlsbad, CA, USA) in filter-sterilized distilled water and incubated for 15 min at room temperature. Then, coupons were rinsed in filter-sterilized distilled water and their surface was examined by fluorescence microscopy using FITC filter (green fluorescence: λexcitation, 499 nm; λemission, 519 nm) and TRITC filter (red fluorescence: λexcitation, 552 nm; λemission, 578 nm). […] Microscope images were analyzed with the software Imaris® × 64 5.7.2. […]

[6] = tested on: HeLa cells; assay: Cytotoxicity assay (MTT); type: cell-based
Protocol: Cytotoxicity was assayed on HeLa cells using the MTT [3-(4,5-dimethylthiazoyl-2-yl) 2,5 diphenyltetrazolium bromide protocol. Cells were grown in Dulbeccos’s modified Eagle’s medium (DMEM) and adjusted to a concentration of 10^5 cells/ml (MTT) in 96 wells polystyrene plates. Plates were incubated for 24 h at 37 °C in 5 % CO2, then supplemented with increasing amounts of peptides diluted in 2 mM Hepes pH 7.2, and incubation carried on for 24 h under the same conditions. After this time, filter-sterilized MTT was added in different plates. After 3 h, the content of the wells was gently solved and mixed with 100 μl of DMSO (MTT). Absorbance was measured at 540 nm. Compound cytotoxicity was expressed as LC50, the concentration of the compound that is lethal to 50 % of the cells.

[7] = tested on: P. aeruginosa PAO1 pMF230 biofilm; assay: CDC-reactor biofilm assay, fluorescence microscopy (GFP/PI); type: cell-based, Pseudomonas aeruginosa; conditions: 10XMIC, 60 min, CDC-reactor coupons; compared with 24 h microplate assay
Protocol: as §1, §2

Structure (SMILES) | MBC (minimal bactericidal concentration) [1] | MIC (minimal inhibitory concentration) [1] | T3log at 1X MIC (time needed to decrease 3 logs the initial inoculum) [2] | T3log at 2X MIC (time needed to decrease 3 logs the initial inoculum) [2] | T3log at 4X MIC (time needed to decrease 3 logs the initial inoculum) [2] | MIC against S. aureus compared with non-acylated counterpart [3] | Disinfection activity (biofilm-forming bacteria killed, MTT test) [4] | Percentage of dead (red) cells in the biofilm volume [5] | LC50 expressed as multiple of the MIC [6] | LC50 (concentration lethal to 50 % of the cells) ([6]; HeLa cells, 24 h, MTT) | Anti-biofilm activity under static and dynamic conditions (fluorescence microscopy) [7]
CCC(C)CCCCC(=O)N[C@@H](Cc1ccccc1)C(=O)N[C@@H](Cc1c[nH]c2ccccc12)C(=O)N[C@@H](CCCNC(=N)N)C(=O)N[C@@H](CCCNC(=N)N)C(=O)N[C@@H](Cc1ccccc1)C(=O)N[C@@H](Cc1c[nH]c2ccccc12)C(=O)N[C@@H](CCCNC(=N)N)C(=O)N[C@@H](CCCNC(=N)N)C(N)=O (stereo partly shown) [6-MO-LF11-227] ({Octanoyl(6-Me)}-FWRRFWRR-NH2) | 128 µg/mL (≈ 88.3 µM) | 128 µg/mL (≈ 88.3 µM) | 10 minutes | 10 minutes | 10 minutes | eight times lower | – | – | – | – | –
CC[C@H](C)[C@H](NC(=O)[C@H](CCCNC(=N)N)NC(=O)[C@@H](NC(=O)[C@H](CCCNC(=N)N)NC(=O)[C@H](Cc1c[nH]c2ccccc12)NC(=O)[C@H](Cc1ccccc1)NC(=O)[C@@H]1CCCN1C(=O)C(C)(C)CC)[C@@H](C)CC)C(=O)N[C@@H](CCCNC(=N)N)C(=O)N[C@@H](CCCNC(=N)N)C(N)=O [DI-MB-LF11-322, 2,2-dimethylbutanoyl-PFWRIRIRR] ({Butanoyl(2,2-Me2)}-PFWRIRIRR-NH2) | 32 µg/mL (≈ 22.9 µM) | 32 µg/mL (≈ 22.9 µM) | 12 minutes | 11 minutes | 10 minutes | – | medium-range disinfection activity | 99.81% | ~2 XMIC | 80 µg/mL | potent anti-biofilm activity
